Legend:
[1] = Metabolic stability in mouse liver microsomes; type: in vitro ADME; details: for Remaining Percentage of 60 min (%), Mouse, Tested Sample: 0.5mg/ml microsomes and 1mM NADPH; for Remaining Percentage of 60 min (%), Mouse, Negative Control: 0.5mg/ml microsomes without NADPH; for Remaining Percentage of 60 min (%), Mouse, Heat-inactivated Control: heat inactivated microsomes without NADPH
Method: Three experiments were performed with 1) 0.5mg/ml microsomes and 1mM NADPH, 2) 0.5mg/ml microsomes without NADPH and 3) 0.5mg/ml heat inactivated microsomes without NADPH in 100mM phosphate buffer, containing 5mM magnesium chloride. […] At the indicated time points, 50μl samples were removed and stopped by addition of 4 volumes of cold acetonitrile with internal standards, 100nM alprazolam, 200nM labetalol and 2μM ketoprofen. The samples were centrifuged at 3,220 g for 40 minutes and aliquots of 100μl were subsequently diluted with 100μl of ultra-pure water and analyzed by LC/MS/MS using a (Shimadzu corporation) LC system coupled to a Shimadzu Triple Quad 5500 mass spectrometer with an ESI interface. The LC system used a Waters XSelect HSS T3 C18, 2.5μm, 2.1 x 50 mm column eluted with one of two methods using mobile phases A (water, 0.1% formic acid) and B (acetonitrile, 0.1% formic acid). […] The Shimadzu Triple Quad 5500 MS was operated with the following parameters: Ion source: Turbo spray; Ionization mode: ESI; Scan type: MRM; Collision gas: 10 L/min; Curtain gas: 30 L/min; Nebulize gas: 50 L/min; Auxiliary gas: 50 L/min; Temperature: 500°C; Ionspray voltage: +5500 V (positive MRM). All experiments were performed in duplicate. Data were analyzed using Microsoft excel, and peak areas were determined from extracted ion chromatograms.

[2] = system: Salmonella typhimurium TA98; experiment: Ames assay, strain TA98; details: for Mean Revertant Colony Counts TA98 SP9+: with S9; for Mean Revertant Colony Counts TA98 S9-: without S9
p-AMPK Thr-172 = experiment: Western blot of p-AMPK Thr-172 in liver of HFD-fed mice; details: HFD fed-DIO mice; 10mg/kg for 12 days; vs sham
[3] = system: Salmonella typhimurium (TA98, TA100, TA1535 and TA1537) and Escherichia coli (WP2 uvrA (pKM101)); experiment: Ames assay, overall outcome and cytotoxicity across strains
[4] = system: fatty acid synthase (FAS); experiment: Western blot of fatty acid synthase in liver of HFD-fed mice; details: HFD fed-DIO mice; 10mg/kg for 12 days; vs sham
[5] = system: carbonic anhydrase-III (CAIII); experiment: Western blot of carbonic anhydrase III in liver of HFD-fed mice; details: HFD fed-DIO mice; 10mg/kg for 12 days; vs sham
[6] = system: phospho-AMPK Thr-172 (p-AMPK); experiment: Western blot of phospho-AMPK Thr-172 in HEK293T cells; type: cell-based, human; details: 1 and 10μM, negatives re-screened at 5 and 20 μM, 3 hours
Method: AMPK is a metabolic sensor that maintains cellular energy supply. As validation of these changes in lipid metabolism and cellular respiration we evaluated phospho-AMPK Thr-172 (p-AMPK) levels by Western blot in HEK293 cells treated with the phenylbenzamide derivatives. Compounds were screened at 1 and 10μM using the known uncouplers niclosamide and FCCP as positive controls (Fig 4A). […] We concluded that compounds that had little effect on oxygen consumption rates also had little effect on phosphorylation of AMPK.

[7] = Body weight changes in HFD-fed mice; type: in vivo, mouse; details: 10mg/kg I.P daily for 12 days
Method: We next measured body weight changes in HFD-fed animals prior to treatment with niclosamide or phenylbenzamide derivatives and after 12 days, prior to sacrifice. During this time, all animals (including sham) lost some weight.
20-week old animals were treated IP with 500199 at 10 or 25mg/kg by IP over a time-course of 9 days. At day 0, 3, 6 and 9 animals were weighed and tissue samples were collected for standard histological scoring of hepatic steatosis and automated quantitative histomorphometric scoring.

## CC(C)(C)c1ccc(O)c(C(=O)Nc2ccc(C(=O)O)cc2Cl)c1 [Compound 500200, 4-[(5-tert-butyl-2-hydroxybenzene)amido]-3-chlorobenzoic acid]
[1]
  Remaining Percentage of 60 min (%), Mouse, Tested Sample: 101.2%
  Remaining Percentage of 60 min (%), Mouse, Negative Control: 111.5%
  Remaining Percentage of 60 min (%), Mouse, Heat-inactivated Control: 102.7%
[2]; 1.5 ug/Well
  Mean Revertant Colony Counts TA98 SP9+: 7.7
  Mean Revertant Colony Counts TA98 S9-: 9.0
[2]; 4 ug/Well
  Mean Revertant Colony Counts TA98 SP9+: 6.3
  Mean Revertant Colony Counts TA98 S9-: 12.0
[2]; 10 ug/Well
  Mean Revertant Colony Counts TA98 SP9+: 9.0
  Mean Revertant Colony Counts TA98 S9-: 8.7
[2]; 25 ug/Well
  Mean Revertant Colony Counts TA98 SP9+: 7.3
  Mean Revertant Colony Counts TA98 S9-: 9.0
[2]; 64 ug/Well
  Mean Revertant Colony Counts TA98 SP9+: 9.0
  Mean Revertant Colony Counts TA98 S9-: 7.7
[2]; 160 ug/Well
  Mean Revertant Colony Counts TA98 SP9+: 11.0
  Mean Revertant Colony Counts TA98 S9-: 5.0
[2]; 400 ug/Well
  Mean Revertant Colony Counts TA98 SP9+: 7.0
  Mean Revertant Colony Counts TA98 S9-: 9.7
[2]; 1000 ug/Well
  Mean Revertant Colony Counts TA98 SP9+: 4.3
  Mean Revertant Colony Counts TA98 S9-: 4.3
[2]; any concentration tested, vs negative control
  fold increase in the mean number of revertant colonies, TA98: < 2 fold
p-AMPK Thr-172
  phosphorylation of AMPK at Thr-172 in liver: stimulated phosphorylation of AMPK at Thr-172
[3]
  Ames assay outcome (mutagenicity): negative
[3]; relative to the negative control, presence and absence of S9 mix
  cytotoxicity in the Ames assay: cytotoxicity was exhibited at the highest concentrations in both strains
[4]
  FAS protein levels in liver: reduced
[5]
  CAIII protein levels in liver: reduced

## CC(C)(C)c1ccc(O)c(C(=O)Nc2ccc(C(=O)O)cc2C(F)(F)F)c1 [Compound 500873, 4-[(5-tert-butyl-2-hydroxy)amido]-3-(trifluoromethyl)benzoic acid]
[6]
  phosphorylation of AMPK (p-AMPK Thr-172) by Western blot: no detectable changes in pAMPK levels
[1]
  Remaining Percentage of 60 min (%), Mouse, Tested Sample: 107.5%
  Remaining Percentage of 60 min (%), Mouse, Negative Control: 106.4%
  Remaining Percentage of 60 min (%), Mouse, Heat-inactivated Control: 105.5%
[1]; 60 minutes
  stability in MLM: stable
[7]
  body weight change vs sham: lost weight but this loss failed to reach significance
[2]; 1.5 ug/Well
  Mean Revertant Colony Counts TA98 SP9+: 5.7
  Mean Revertant Colony Counts TA98 S9-: 5.0
[2]; 4 ug/Well
  Mean Revertant Colony Counts TA98 SP9+: 6.0
  Mean Revertant Colony Counts TA98 S9-: 9.0
[2]; 10 ug/Well
  Mean Revertant Colony Counts TA98 SP9+: 6.3
  Mean Revertant Colony Counts TA98 S9-: 4.0
[2]; 25 ug/Well
  Mean Revertant Colony Counts TA98 SP9+: 9.3
  Mean Revertant Colony Counts TA98 S9-: 7.7
[2]; 64 ug/Well
  Mean Revertant Colony Counts TA98 SP9+: 8.3
  Mean Revertant Colony Counts TA98 S9-: 11.7
[2]; 160 ug/Well
  Mean Revertant Colony Counts TA98 SP9+: 10.3
  Mean Revertant Colony Counts TA98 S9-: 10.0
[2]; 400 ug/Well
  Mean Revertant Colony Counts TA98 SP9+: 14.0
  Mean Revertant Colony Counts TA98 S9-: 11.7
[2]; 1000 ug/Well
  Mean Revertant Colony Counts TA98 SP9+: 16.3
  Mean Revertant Colony Counts TA98 S9-: 14.0
[2]; 1000 μg/well in the absence of S9 mix
  fold increase in revertant colonies, TA98: ≥ 2 fold

## CC(C)(C)c1ccc(O)c(C(=O)Nc2cc(C(=O)O)ccc2Cl)c1 [Compound 600494, 3-{[2-Hydroxy-5-(tert-butyl)benzene]amido}-4chloro-benzoic acid]
[1]
  Remaining Percentage of 60 min (%), Mouse, Tested Sample: 109.6%
  Remaining Percentage of 60 min (%), Mouse, Negative Control: 68.9%
  Remaining Percentage of 60 min (%), Mouse, Heat-inactivated Control: 98.5%
[2]; 1.5 ug/Well
  Mean Revertant Colony Counts TA98 SP9+: 8.7
  Mean Revertant Colony Counts TA98 S9-: 7.3
[2]; 4 ug/Well
  Mean Revertant Colony Counts TA98 SP9+: 9.3
  Mean Revertant Colony Counts TA98 S9-: 7.7
[2]; 10 ug/Well
  Mean Revertant Colony Counts TA98 SP9+: 7.7
  Mean Revertant Colony Counts TA98 S9-: 7.3
[2]; 25 ug/Well
  Mean Revertant Colony Counts TA98 SP9+: 12.0
  Mean Revertant Colony Counts TA98 S9-: 6.7
[2]; 64 ug/Well
  Mean Revertant Colony Counts TA98 SP9+: 8.0
  Mean Revertant Colony Counts TA98 S9-: 6.0
[2]; 160 ug/Well
  Mean Revertant Colony Counts TA98 SP9+: 15.7
  Mean Revertant Colony Counts TA98 S9-: 11.7
[2]; 400 ug/Well
  Mean Revertant Colony Counts TA98 SP9+: 10.3
  Mean Revertant Colony Counts TA98 S9-: 14.0
[2]; 400 μg/well in the absence of S9 mix
  fold increase in revertant colonies, TA98: ≥ 2 fold
[2]; 1000 ug/Well
  Mean Revertant Colony Counts TA98 SP9+: 11.3
  Mean Revertant Colony Counts TA98 S9-: 10.7

— article PMC6201879, “N-substituted phenylbenzamides of the niclosamide chemotype attenuate obesity related changes in high fat diet fed mice” (PLoS ONE, 2018)
